Assay results from PMC12755129 (Blood, 2025).

Target: LRRC8A (SWELL1), LRRC8 volume-regulated anion channel complex (Homo sapiens, UniProt Q8IWT6)
Experiment: patch clamp of hypotonic swell-activated VRAC/ATP currents in MEG-01 cells
Format: cell-based

LRRC8A (SWELL1), LRRC8 volume-regulated anion channel complex, sequence (Q8IWT6 whole entry): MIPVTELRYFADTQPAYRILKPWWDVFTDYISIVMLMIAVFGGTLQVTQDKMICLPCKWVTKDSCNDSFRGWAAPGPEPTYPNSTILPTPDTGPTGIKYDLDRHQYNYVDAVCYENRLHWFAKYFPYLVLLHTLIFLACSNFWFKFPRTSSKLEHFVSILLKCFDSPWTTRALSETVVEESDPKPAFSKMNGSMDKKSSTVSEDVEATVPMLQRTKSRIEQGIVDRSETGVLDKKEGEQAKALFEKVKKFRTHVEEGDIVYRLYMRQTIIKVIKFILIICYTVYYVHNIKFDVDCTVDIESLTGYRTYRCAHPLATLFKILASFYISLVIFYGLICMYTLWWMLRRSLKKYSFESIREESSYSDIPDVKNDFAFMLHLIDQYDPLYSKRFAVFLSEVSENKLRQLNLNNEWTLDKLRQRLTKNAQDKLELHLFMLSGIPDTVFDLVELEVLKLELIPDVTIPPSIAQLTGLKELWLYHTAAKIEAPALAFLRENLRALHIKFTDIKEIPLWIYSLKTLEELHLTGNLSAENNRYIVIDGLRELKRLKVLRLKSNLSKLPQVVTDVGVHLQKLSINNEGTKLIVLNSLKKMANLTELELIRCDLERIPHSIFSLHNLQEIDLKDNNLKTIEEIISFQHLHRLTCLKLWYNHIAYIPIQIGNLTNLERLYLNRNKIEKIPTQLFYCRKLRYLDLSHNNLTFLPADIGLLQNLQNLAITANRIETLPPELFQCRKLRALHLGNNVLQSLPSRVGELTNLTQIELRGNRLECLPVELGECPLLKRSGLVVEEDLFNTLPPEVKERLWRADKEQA
LRRC8A (SWELL1), LRRC8 volume-regulated anion channel complex, sequence (Q6P9F7 whole entry partner): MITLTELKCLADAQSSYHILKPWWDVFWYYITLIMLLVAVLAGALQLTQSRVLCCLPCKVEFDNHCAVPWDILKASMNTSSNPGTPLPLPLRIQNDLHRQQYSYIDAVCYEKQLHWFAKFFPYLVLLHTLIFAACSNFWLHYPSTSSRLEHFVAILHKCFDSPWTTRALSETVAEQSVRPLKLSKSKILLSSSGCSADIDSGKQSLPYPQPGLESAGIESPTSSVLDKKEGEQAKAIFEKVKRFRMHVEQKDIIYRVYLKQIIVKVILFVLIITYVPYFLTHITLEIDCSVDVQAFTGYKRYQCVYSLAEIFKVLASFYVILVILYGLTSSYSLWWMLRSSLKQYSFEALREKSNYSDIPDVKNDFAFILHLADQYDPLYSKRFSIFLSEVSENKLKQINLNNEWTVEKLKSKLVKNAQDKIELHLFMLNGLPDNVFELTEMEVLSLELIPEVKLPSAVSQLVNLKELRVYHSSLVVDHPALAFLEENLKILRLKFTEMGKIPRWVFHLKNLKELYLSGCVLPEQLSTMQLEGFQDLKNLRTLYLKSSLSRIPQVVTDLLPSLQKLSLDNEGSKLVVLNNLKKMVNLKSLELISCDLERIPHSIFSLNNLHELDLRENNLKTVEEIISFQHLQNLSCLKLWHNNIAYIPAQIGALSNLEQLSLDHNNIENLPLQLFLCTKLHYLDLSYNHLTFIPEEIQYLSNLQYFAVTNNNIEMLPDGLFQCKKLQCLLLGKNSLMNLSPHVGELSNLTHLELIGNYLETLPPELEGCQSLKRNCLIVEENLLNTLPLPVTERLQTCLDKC
LRRC8A (SWELL1), LRRC8 volume-regulated anion channel complex, sequence (Q8TDW0 whole entry partner): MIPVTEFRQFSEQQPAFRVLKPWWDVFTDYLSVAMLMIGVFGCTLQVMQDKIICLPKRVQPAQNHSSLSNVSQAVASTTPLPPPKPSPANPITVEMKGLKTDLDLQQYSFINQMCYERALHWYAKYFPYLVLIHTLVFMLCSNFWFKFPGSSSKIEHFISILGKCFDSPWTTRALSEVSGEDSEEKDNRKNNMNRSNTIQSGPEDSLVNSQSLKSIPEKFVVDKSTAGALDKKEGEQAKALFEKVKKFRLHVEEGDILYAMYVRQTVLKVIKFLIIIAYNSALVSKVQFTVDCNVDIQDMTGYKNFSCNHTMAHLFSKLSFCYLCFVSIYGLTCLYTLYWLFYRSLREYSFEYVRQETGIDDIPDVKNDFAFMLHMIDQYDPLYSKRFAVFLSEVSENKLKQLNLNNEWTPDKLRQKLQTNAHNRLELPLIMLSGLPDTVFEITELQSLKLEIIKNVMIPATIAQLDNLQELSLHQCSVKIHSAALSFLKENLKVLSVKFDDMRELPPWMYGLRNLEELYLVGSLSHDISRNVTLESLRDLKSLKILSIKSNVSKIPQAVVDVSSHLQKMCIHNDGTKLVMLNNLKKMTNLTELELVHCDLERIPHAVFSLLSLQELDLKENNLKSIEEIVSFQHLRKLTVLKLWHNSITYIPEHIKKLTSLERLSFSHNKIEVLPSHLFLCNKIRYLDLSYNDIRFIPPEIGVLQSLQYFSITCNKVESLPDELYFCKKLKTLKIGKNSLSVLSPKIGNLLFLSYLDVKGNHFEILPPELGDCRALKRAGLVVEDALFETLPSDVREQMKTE
LRRC8A (SWELL1), LRRC8 volume-regulated anion channel complex, sequence (Q7L1W4 whole entry partner): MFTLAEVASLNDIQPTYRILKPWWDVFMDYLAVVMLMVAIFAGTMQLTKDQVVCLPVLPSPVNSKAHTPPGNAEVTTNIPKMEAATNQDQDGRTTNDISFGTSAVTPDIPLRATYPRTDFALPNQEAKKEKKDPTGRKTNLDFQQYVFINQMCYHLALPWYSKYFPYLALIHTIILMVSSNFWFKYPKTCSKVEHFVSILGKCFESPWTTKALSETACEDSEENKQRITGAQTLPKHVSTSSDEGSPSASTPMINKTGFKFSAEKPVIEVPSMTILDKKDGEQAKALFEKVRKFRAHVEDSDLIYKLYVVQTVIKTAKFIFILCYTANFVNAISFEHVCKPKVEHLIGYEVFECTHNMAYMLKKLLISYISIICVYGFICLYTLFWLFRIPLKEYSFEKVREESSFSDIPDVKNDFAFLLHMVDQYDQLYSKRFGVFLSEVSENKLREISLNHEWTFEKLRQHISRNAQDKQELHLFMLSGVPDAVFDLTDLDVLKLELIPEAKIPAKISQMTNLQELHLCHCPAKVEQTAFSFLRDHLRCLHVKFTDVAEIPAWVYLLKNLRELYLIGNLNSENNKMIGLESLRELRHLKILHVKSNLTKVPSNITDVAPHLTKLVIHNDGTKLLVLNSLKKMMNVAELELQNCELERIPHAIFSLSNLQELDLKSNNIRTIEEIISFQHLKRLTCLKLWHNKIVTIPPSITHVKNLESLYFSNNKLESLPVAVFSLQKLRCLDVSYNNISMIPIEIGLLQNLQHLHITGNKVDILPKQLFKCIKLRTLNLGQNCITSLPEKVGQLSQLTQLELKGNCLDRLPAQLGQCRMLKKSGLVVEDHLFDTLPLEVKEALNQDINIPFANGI

Row | Compound | IC50
1 | CCCCC1(C2CCCC2)Cc2cc(OCCCC(=O)O)c(Cl)c(Cl)c2C1=O (centres unmarked) [SN-401, 4-(2-butyl-6,7-dichloro-2-cyclopentylindan-1-on-5-yl)oxybutyric acid] | 1.5 µM
2 | SN-406 | 1 µM
